Laboratory results as given in patent US8884011B2, “Nucleotide analogues as precursor molecules for antivirals” (Centre National de la Recherche Scientifique-CNRS, priority 2006, dated 2014).

Assays:
[1] = Cytotoxicity in CEM cell cultures (cell density); assay type: cell-based; settings: human, 50% reduction in cell density, read-out: TC50 (the source's name)
[2] = test system: HIV-2 (ROD); assay: Anti-HIV test in CEM cell cultures, syncytium formation, HIV-2 (ROD); assay type: cell-based; settings: Human immunodeficiency virus 2, CCRF-CEM, read-out: EC50 (μM) HIV-2
[3] = Stability in total cell extracts (CEM-SS), HPLC; assay type: in vitro ADME; settings: 37° C., 0.1 mM
Experimental: (§1) Media and preparation of cell extracts. Culture medium was composed by RPMI 1640 containing 10% (v/v) heat-inactivated fetal calf serum and stored at −80° C. CEM-SS cell extracts were prepared according to a published procedure (Puech, F. et al. Antiv. Res. 1993, 22, 155-174). Exponentially growing CEM-SS cells were recovered by centrifugation (500 g, 4° C., 4 min), washed twice with PBS and resuspended in 10 mM Tris-HCl, 140 mM KCl (pH 7.4), at the concentration of 30×10^6 cells/mL. Cells were lyzed by ultrasonic treatment and cellular debris were removed by centrifugation (10000 g, 4° C., 20 min). The supernatant containing soluble proteins (3 mg/mL) was stored at −80° C.
Kinetic data and decomposition pathways for compounds 6 and 11 were studied at 37° C. […]
All the compounds were analyzed under the same conditions. […] The product of degradation from parent compound was determined by comparison with corresponding references.

[4] = test system: Punta Toro virus; assay: Virus panel, CPE assay: Punta Toro virus in Vero cells; assay type: cell-based; settings: read-out: in vitro antiviral activity (EC50), none up to
[5] = test system: influenza B; assay: Virus panel: influenza B in MDCK cells; assay type: cell-based; settings: read-out: in vitro antiviral activity (EC50), none up to
Description: (§2) influenza A (H1N1), influenza A (H3N2), influenza B, in MDCK cells;

[6] = test system: HBV; assay: Anti-HBV test in infected HepAD38 cells (intracellular viral DNA by Q-PCR); assay type: cell-based; settings: Hepatitis B virus, 144 h; infected HepAD38 cells; 50% reduction of viral DNA; day 6 post-induction
Experimental: These are hepatoma cells that have been stably transfected with a cDNA copy of the pregenomic RNA of wild-type virus. Withdrawal of tetracycline from the culture medium results in the initiation of viral replication. This offers the advantage, in contrast to the Hep G2.2.15 cell lines commonly used, that there is no, or very limited background viral DNA synthesis. Cells were cultured at 37° C. in a humidified 5% CO2/air atmosphere in seeding medium, DMEM/Ham's F12 (50/50) supplemented with 10% (v/v) heat-inactivated fetal calf serum, 100 IU/ml penicillin, 50 μg/ml streptomycin, 100 Ξg/ml kanamycin, 400 μg/ml G418, and 0.3 μg/ml tetracycline. […] After 2-3 days the cultures were induced for viral production by washing with prewarmed PBS and were fed with […] assay medium (seeding medium without tetracycline and G418) with or without the antiviral compounds. Medium was changed after 3 days. The antiviral effect was quantified by measuring levels of intracellular viral DNA at day 6 post-induction, by a real time quantitative PCR (Q-PCR) method. Total cellular DNA was extracted from the cells by means of a commercial kit. […] The reaction was analyzed using a SDS 7000. A plasmid containing the full length insert of the HBV genome was used to prepare the standard curve. The amount of viral DNA produced in treated cultures was expressed as a percentage of the mock treated samples. […] The cytostatic effect of the various compounds was assessed employing the parent hepatoma cell line HepG2. The effect of the compounds on exponentially growing HepG2 cells was evaluated by means of the MTS method. Briefly, cells were seeded at a density of 3000/well (96 well plate) and were allowed to proliferate for 3 days in the absence or presence of compounds after which the optical density was measured with a 96-well plate reader and cell density was determined.

[7] = test system: influenza A (H3N2); assay: Virus panel: influenza A (H3N2) in MDCK cells; assay type: cell-based; settings: read-out: in vitro antiviral activity (EC50), none up to
Description: as §2

[8] = test system: Coxsackie B4; assay: Virus panel, CPE assay: Coxsackie B4 virus in Hela and Vero cells; assay type: cell-based; settings: Enterovirus B, read-out: in vitro antiviral activity (EC50), none up to
[9] = test system: Sindbis virus; assay: Virus panel, CPE assay: Sindbis virus in Vero cells; assay type: cell-based; settings: read-out: in vitro antiviral activity (EC50), none up to
[10] = Cytostatic effect on parent hepatoma cell line HepG2 (MTS method); settings: human
[11] = test system: HBV; assay: Anti-HBV test in infected Huh7 cells; assay type: cell-based; settings: Hepatitis B virus, Huh-7, read-out: EC50 (μM) HBV
[12] = Stability in complete medium (RPMI 1640 containing 10% heat-inactivated fetal calf serum), HPLC; assay type: in vitro ADME
Experimental: as §1
Kinetic data and decomposition pathways for compounds 6 and 11 were studied at 37° C. (a) in complete medium (RPMI 1640 containing 10% heat-inactivated fetal calf serum (b) in total cells extracts (CEM-SS). For each kinetic study, the compound solution was diluted with a freshly thawed aliquot of the considered medium to obtain an initial concentration of 0.1 mM. The mixture was incubated at 37° C. and for the required time, an aliquot (10% solution) was taken and immediately frozen at −80° C. for further HPLC analysis. The crude sample was injected into the precolumn and eluted with buffer A during 5 min. Then, the switching valve for connecting the precolumn to the column was activated, and a linear gradient from buffer A to buffer B, increasing buffer B from 0% at 0 min to 20% at 40 min is applied. The retention times were 6, 26 min; 11, 29.5 min, PMEA, 24.3 min and (R)-PMPA, 27.8 min.
All the compounds were analyzed under the same conditions. The amount of remaining parent compound at each time point was used to determine the half-life of the compound. The product of degradation from parent compound was determined by comparison with corresponding references.

[13] = test system: respiratory syncytial virus; assay: Virus panel, CPE assay: respiratory syncytial virus in Hela cells; assay type: cell-based; settings: human respiratory syncytial virus, read-out: in vitro antiviral activity (EC50), none up to
[14] = test system: Reovirus-1; assay: Virus panel, CPE assay: Reovirus-1 in Vero cells; assay type: cell-based; settings: Reovirus-1, Vero cells; read-out: in vitro antiviral activity (EC50), none up to
[15] = test system: Feline Herpes virus; assay: Virus panel: Feline Herpes virus in CRFK cells; assay type: cell-based
Description: Feline Corona virus and Feline Herpes virus in CRFK cells.

[16] = test system: HIV-1-LAI; assay: Anti-HIV test in CMSP cultures infected by HIV-1-LAI (RT activity in supernatants); assay type: cell-based; settings: Human immunodeficiency virus 1, 168 h, read-out: EC50 (μM) HIV-1 (LAI)
[17] = Cytotoxicity by MTT test in cultures of uninfected CMSP; settings: human
[18] = test system: vesicular stomatitis virus; assay: microbe, parasite or virus in culture; assay type: cell-based; settings: HEL, read-out: in vitro antiviral activity (EC50), none up to
[19] = test system: influenza A (H1N1); assay: Virus panel: influenza A (H1N1) in MDCK cells; assay type: cell-based; settings: read-out: in vitro antiviral activity (EC50), none up to
Description: as §2

[20] = test system: Herpes simplex virus-2 (G); assay: Virus panel, CPE assay: Herpes simplex virus-2 (G) in HEL cells; assay type: cell-based; settings: Human alphaherpesvirus 2
[21] = test system: HIV-1 (IIIB); assay: Anti-HIV test in CEM cell cultures, syncytium formation, HIV-1 (IIIB); assay type: cell-based; settings: Human immunodeficiency virus 1, IIIB, CCRF-CEM, read-out: EC50 (μM) HIV-1
Experimental: Briefly, CEM cells (4.5×10^5 cells per ml) were suspended in fresh culture medium and infected with HIV-1 at 100 CCID50 per ml of cell suspension. Then, 100 μl of the infected cell suspension were transferred to microplate wells, mixed with 100 μl of the appropriate dilutions of the test compounds, and further incubated at 37° C. After 4 to 5 days, giant cell formation was recorded microscopically in the CEM cell cultures.

[22] = test system: Parainfluenza-3-virus; assay: Virus panel, CPE assay: Parainfluenza-3-virus in Vero cells; assay type: cell-based; settings: read-out: in vitro antiviral activity (EC50), none up to

Nc1ncnc2c1ncn2CCOCP(=O)(O)S (stereo not drawn) [Compound 6, 9-[2-(thiophosphonomethoxy)ethyl]adenine]
CC50 [1]: > 332 µM | EC50 [2]: 10.4 µM | t1/2 cell extracts [3]: stable^c | EC50 [4]: > 200 µM | EC50 [5]: > 200 µM | EC50 [6]: 9.6 µM | EC50 [7]: > 200 µM | EC50 [8]: > 200 µM | EC50 [9]: > 200 µM | CC50 at 3 days [10]: > 166 µM | EC50 [11]: 4.5 µM | half-life at 0.1 mM ([12]; bovine, serum, 37° C., initial concentration 0.1 mM, read-out: t1/2 complete medium): > 1440 min | product intact ([12]; complete medium, 37° C., degradation into the phosphonate): ^a: product 80% intact (degradation into PMEA) | degradation ([12]; culture medium): 20% | EC50 [13]: > 200 µM | EC50 [14]: > 200 µM | EC50 [15]: 38 µM | EC50 [16]: 7 µM | CC50 at 7 days [17]: > 42 µM | EC50 [18]: > 200 µM | EC50 [19]: > 200 µM | EC50 [20]: 58 µM | EC50 [21]: 12.2 µM | EC50 [22]: > 200 µM
